According to paper PMC9936527, “Tandemly duplicated CYP82Ds catalyze 14-hydroxylation in triptolide biosynthesis and precursor production in Saccharomyces cerevisiae” (Nature Communications, 2023):

Experiments:
Type in all cases: biochemical, Tripterygium wilfordii
Conditions in all cases: NADPH with regenerating system, TwPOR3, Tris-HCl pH 7.5, 30 °C, 30 min; 14-hydroxylation
CYP82D274 [1] = system: T1, CYP82D274; assay: yeast microsomes, product […] by LC-TQ-MS/MS, Michaelis-Menten fit
T1 construct: full-length CYP cloned from root cDNA, coexpressed with TwPOR3 (pESC-LEU) in Saccharomyces cerevisiae BY4741; yeast microsomes; with NADPH--cytochrome P450 reductase

CYP82D263 = system: T2, CYP82D263; assay: as above
T2 construct: full-length CYP cloned from root cDNA, coexpressed with TwPOR3 (pESC-LEU) in Saccharomyces cerevisiae BY4741; yeast microsomes; with NADPH--cytochrome P450 reductase

CYP82D274 [2] = system: T1, CYP82D274; assay: yeast microsomes, product […] by GC-MS, Michaelis-Menten fit

| SMILES | Km (CYP82D274 [1]) [µM] | Km (CYP82D263) [µM] | Km (CYP82D274 [2]) [µM] |
| --- | --- | --- | --- |
| CC(C)c1ccc2c(c1)CC[C@H]1[C@](C)(C(=O)O)CCC[C@]21C [compound 7, dehydroabietic acid] | 0.99 ± 0.17 | 8.42 ± 1.89 | – |
| CC(C)C1=CCC2=C(CC[C@H]3C(C)(C)CCC[C@]23C)C1 [compound 5, miltiradiene] | – | – | 47.3 ± 13 |
